Patent US20220362239A1, “PHARMACEUTICAL COMPOSITION AND METHOD FOR TREATMENT OF ACUTE RESPIRATORY DISTRESS SYNDROME (ARDS) IN CORONAVIRUS DISEASE (COVID-19)” (PHARMAZZ, INC., priority 2021, published 2022)

How the values were obtained:
[1] = test system: SARS-CoV-2 viral load in nasopharyngeal swabs; conditions: 600 mg daily; day 6 post inclusion compared to controls; cited from earlier work
SARS-CoV-2 = conditions: cited from earlier work
[2] = test system: patients with hypovolemic shock; assay: clinical phase II study in hypovolemic shock (NCT04056065); assay type: in vivo, human
swine model of shock = conditions: in vivo; cited from earlier work
[3] = test system: patients with hypovolemic shock; assay: phase III randomized, blinded, multicenter study in hypovolemic shock (NCT04045327); assay type: in vivo, human
Text: ARDS in Shock Patients (N=105): Acute Respiratory Distress Syndrome (ARDS) was compared between day 1 (before resuscitation) and day 3 of resuscitation. In control patients receiving standard treatment the difference between means was 0.04839±0.05696 (P=0.4023). On the other hand, in centhaquine treated group the ARDS difference between means was 0.1065±0.04464 (P=0.0202).
MODS in Shock Patients (N=105): Multiple Organ Dysfunction Score (MODS) was compared between day 3 and day 7 of resuscitation. There was no improvement in MODS in the control group and the difference between means was 0.00±0.2697 (P>0.999), whereas in centhaquine group the difference between means was 0.9091±0.1964 (P=0.0001).

healthy human subjects = assay: Phase I safety study (NCT02408731); assay type: in vivo
Text: Centhaquine has been evaluated for its safety, sensitivity and toxicity in various species for single and multiple doses and acute as well as chronic exposure (33).
Centhaquine has been evaluated for its safety, sensitivity and toxicity in various species for single and multiple doses and acute as well as chronic exposure (33). […] Safety and efficacy of centhaquine is established (Phase I, phase II and phase III clinical studies)

[4] = test system: models of hypovolemic shock; conditions: in vivo; cited from earlier work
[5] = test system: patients with hypovolemic shock; assay: combined / metanalysis of phase II and III trials in hypovolemic shock
Text: In a 105-patient randomized, blinded, multicenter study (CTRI/2019/01/017196; NCT04045327) a total of 34 (22 male and 12 female) patients in control and 68 (41 male and 27 female) patients in centhaquine groups completed the study. […] In total 180 human subjects have been studied (combined phase I, II and III), out of which 155 were patients with hypovolemic shock.

COVID-19 patients [6] = assay: centhaquine (Lyfaquin) in COVID-19 patients; assay type: in vivo, human; conditions: for slope of SpO2/FiO2 versus age of patient: basal slope −1.062
Protocol: The effect of centhaquine (Lyfaquin®) was determined COVID-19 patients. A significant improvement in oxygen saturation (SpO2) of COVID-19 patients by intravenous administration of centhaquine in the dose of 0.01 mg/kg was observed (FIG. 2). An improvement of SpO2 improved by 12.40 units within 2 hours of administration of centhaquine and further treatment with centhaquine led to an improvement of SpO2 by about 20 units.
We also determined the effect of age on the improvement in ratio of SpO2 and FiO2 (SpO2/FiO2) after administration of centhaquine (FIG. 3). […] Centhaquine (Lyfaquin®) improved SpO2/FiO2 in COVID-19 patients.
WHO Ordinal Scale was used to determine whether centhaquine (Lyfaquin®) improved the outcome of patients with COVID-19 (FIG. 5).

[7] = test system: swine model of in hospital cardiac arrest; conditions: in vivo; cited from earlier work
COVID-19 patients [8] = conditions: 13 patients; inhalation 10 mg; cited from earlier work

For `CCN(CCO)CCCC(C)Nc1ccnc2cc(Cl)ccc12` (stereo not shown) [hydroxychloroquine], the viral carriage [1] is given as “significant reduction”.

For `CCN(CC)CCCC(C)Nc1ccnc2cc(Cl)ccc12` (stereo not shown) [chloroquine], the “inhibition of SARS-CoV-2 in vitro” value (SARS-CoV-2) is given as “effectively inhibit”.

For `Cc1cccc(N2CCN(CCc3ccc4ccccc4n3)CC2)c1` [centhaquine], the mortality ([2]; human, in vivo) was “reduced mortality”, the use of vasopressors ([2]; human, in vivo) was “reduction in use of vasopressors” and the base-deficit ([2]; p<0.0001) was “highly significant efficacy”. The blood pressure ([2]; p<0.0001) was “highly significant efficacy”, the lactate levels ([2]; p=0.0012) was “highly significant efficacy” and the “adverse events related to centhaquine” value ([2]; phase II) was “NO adverse events”. For the same molecule, the “Horowitz index (PaO2/FiO2 ratio)” value (swine model of shock) was “improved”, the pulmonary edema (swine model of shock) was “significantly reduced” and the “ARDS difference between means” value ([3]; day 1 (before resuscitation) vs day 3 of resuscitation, P=0.0202) was 0.1065±0.04464. The blood lactate levels ([3]; day 3 of resuscitation, compared to control, P=0.046) was “significantly lower”, the “MODS difference between means” value ([3]; day 3 vs day 7 of resuscitation, P=0.0001) was 0.9091±0.1964 and the “adverse events related to centhaquine” value ([3]; phase III) was “NO adverse events”. For the same molecule, the 28-day all-cause mortality ([3]; versus 11.76% with standard treatment, P=0.0742) was 2.94%, the safety and tolerability (healthy human subjects) was “safe and well tolerated” and the survival [4] was “improves survival”. The mortality ([5]; 155 patients with hypovolemic shock, versus 9.68% with standard treatment) was 2.15%, the mortality odds ratio ([5]; 155 patients, 95% CI 1.162-24.18, P=0.0190) was 4.875 and the ARDS scores ([5]; N=155) was “significantly improved”. The MODS score ([5]; N=155) was “significantly improved”, the mortality ([5]; metanalysis of phase II and III trials, versus 10.71%) was 2.20% and the mortality odds ratio ([5]; metanalysis of phase II and III, 95% CI 1.27-26.50, p=0.0271) was 5.340. For the same molecule, the “slope of SpO2/FiO2 versus age of patient” value (COVID-19 patients [6]; at 2 hours of treatment) was −0.5905, the “slope of SpO2/FiO2 versus age of patient” value (COVID-19 patients [6]; at 4 hours of treatment) was −0.2718 and the “improvement in WHO Ordinal Scale, mean difference” value (COVID-19 patients [6]; at 72 hours of resuscitation, N=10, p=0.0169) was 0.7444. For the same molecule, the “patients who did not need oxygen therapy” value (COVID-19 patients [6]; at 72 hours of treatment) was “Four out of 10”, the “improvement of oxygen saturation (SpO2)” value (COVID-19 patients [6]; further treatment with centhaquine) was “about 20 units” and the “improvement of SpO2/FiO2” value (COVID-19 patients [6]; in 4 hours) was 41.42 units. For the same molecule, the “improvement of SpO2/FiO2” value (COVID-19 patients [6]; within 2 hours) was 34.48 units, the “improvement of oxygen saturation (SpO2)” value (COVID-19 patients [6]; within 2 hours of intravenous centhaquine 0.01 mg/kg) was 12.40 units and the “efficacy as resuscitative agent” value [7] was “highly effective”.

B1: plasminogen: plasminogen supplementation given by inhalation, 10 mg dissolved in 2 ml sterile water (protein, UniProt P00747 20-810, looked up)
Plasminogen: EPLDDYVNTQGASLFSVTKKQLGAGSIEECAAKCEEDEEFTCRAFQYHSKEQQCVIMAENRKSSIIIRMRDVVLFEKKVYLSECKTGNGKNYRGTMSKTKNGITCQKWSSTSPHRPRFSPATHPSEGLEENYCRNPDNDPQGPWCYTTDPEKRYDYCDILECEEECMHCSGENYDGKISKTMSGLECQAWDSQSPHAHGYIPSKFPNKNLKKNYCRNPDRELRPWCFTTDPNKRWELCDIPRCTTPPPSSGPTYQCLKGTGENYRGNVAVTVSGHTCQHWSAQTPHTHNRTPENFPCKNLDENYCRNPDGKRAPWCHTTNSQVRWEYCKIPSCDSSPVSTEQLAPTAPPELTPVVQDCYHGDGQSYRGTSSTTTTGKKCQSWSSMTPHRHQKTPENYPNAGLTMNYCRNPDADKGPWCFTTDPSVRWEYCNLKKCSGTEASVVAPPPVVLLPDVETPSEEDCMFGNGKGYRGKRATTVTGTPCQDWAAQEPHRHSIFTPETNPRAGLEKNYCRNPDGDVGGPWCYTTNPRKLYDYCDVPQCAAPSFDCGKPQVEPKKCPGRVVGGCVAHPHSWPWQVSLRTRFGMHFCGGTLISPEWVLTAAHCLEKSPRPSSYKVILGAHQEVNLEPHVQEIEVSRLFLEPTRKDIALLKLSSPAVITDKVIPACLPSPNYVVADRTECFITGWGETQGTFGAGLLKEAQLPVIENKVCNRYEFLNGRVQSTELCAGHLAGGTDSCQGDSGGPLVCFEKDKYILQGVTSWGLGCARPNKPGVYVRVSRFVTWIEGVMRNN
For B1, the “patients with improved oxygen saturation” value (COVID-19 patients [8]) is given as 6 patients and the “patients with improvement in density of 'ground glass' opacity” value (COVID-19 patients [8]) is given as 5 patients.
